One assay has as its system S. aureus RN4220. Put plainly: MIC/MBC by broth microdilution, S. aureus RN4220. Type of assay: cell-based. Conditions: Staphylococcus aureus. The procedure:
S. aureus CECT 976, obtained from the Spanish Type Culture Collection, was used as the standard susceptibility testing control strain. This strain has been previously employed in diverse studies to validate the antimicrobial effects of novel molecules. Additional antibiotic-resistant strains, S. aureus XU212, SA1199B, and RN4220, generously provided by S. Gibbons (University College London, London, UK) were tested. […] The SA1199B strain is characterized by its resistance to fluoroquinolones due to the overexpression of the NorA efflux pump and its ciprofloxacin resistance.
The minimum inhibitory concentration (MIC) and minimum bactericidal concentration (MBC) values of all QHSs were determined by the broth microdilution method, according to the approved M7-A7 (aerobes) standards of the Clinical and Laboratory Standards Institute (CLSI) guidelines. Overnight cell cultures of S. aureus, in the exponential phase of growth, were adjusted to an optical density (OD) of 0.132 ± 0.02 (λ = 600 nm). Then, a volume of 180 µL of the cell suspension was added to sterile, flat, clear-bottomed polystyrene (PS) 96-well microtiter plates (VWR—Radnor, PA, USA), already containing 20 µL of each QHS under study at concentrations ranging from 0.0625 to 64 µg/mL. In the end, the volume of each compound never exceeded 10% (v/v) of the well volume. Microtiter plates were then incubated for 24 h at 37 °C under agitation (150 rpm; INCU-Line IL 150R incubator). Absorbance measurements were performed at the beginning (t = 0 h) and end (t = 24 h) of the incubation period using a microtiter plate absorbance reader (BMG LABTECH FLUOstar Omega). Bacterial suspensions with DMSO and without QHSs were used as negative controls. […] All tests were performed with six replicates and a minimum of three independent repeats.
Plates were incubated at 37 °C for 24 h, and growth was visually inspected. The MBC was determined as the lowest concentration of compound in which the total inhibition of growth on solid medium was observed (no colony forming units (CFUs) were detected). All tests were performed in triplicate, and with a minimum of three independent repeats.
(In general: Broth dilution looks for growth in wells or tubes with falling amounts of substance.)

The next assay deals with S. aureus CECT 976. Put plainly: Quantitative suspension test, dose-response against planktonic bacteria. It counts as cell-based, Staphylococcus aureus. To be noted: 30 min exposure; for concentration inducing reductions in S. aureus log CFU/mL > 5 / MBC: S. aureus CECT 976; for MBC: Staphylococcus aureus, CECT976, 0.5 h, 37 °C, distilled water. As for the experimental part: A quantitative suspension test to explore the dose–response relationships of QHSs by evaluating bactericidal activity was performed. For this method, overnight grown cultures were centrifuged (VWR Mega Star 600R) at 3772× g for 10 min and washed twice with phosphate-buffered saline (PBS; 1.44 g/L of […]—Labkem, Barcelona, Spain; 8 g/L of sodium chloride, 0.2 g/L of potassium chloride, and 0.24 g/L of potassium dihydrogen phosphate—VWR, Leuven, Belgium) at pH 7.4. The collected cells were resuspended in PBS and adjusted to an optical density (OD) of 0.132 ± 0.02 (λ = 600 nm). Afterwards, 100 µL of this cell suspension was aseptically transferred to 800 µL of DW and allowed to stand for 2 min. To this mixture, 100 µL of each QHS solution diluted in DMSO at the desired concentration was added. The dose–response evaluation took place for 30 min at 37 °C. In the case of the negative control (untreated cells), the QHS solution was replaced by an equal volume of DMSO or DW. At the end of the contact time, QHS neutralization was performed through the dilution-neutralization method using a universal neutralizer (1 g/L L-histidine (Merck—Tokyo, Japan), 3 g/L lecithin (Alfa Aesar—Karlsruhe, Germany), 5 g/L sodium thiosulphate (Labkem—Barcelona, Spain), 30 g/L saponin (VWR Chemicals—Leuven, Belgium), and 30 g/L polysorbate 80 (VWR Chemicals—Le Havre, France) in 0.0025 M phosphate buffer). For neutralization, the test blend (100 µL) was added to 800 µL sterile aqueous neutralizing solution and 100 µL of DW. The mixture was gently agitated and allowed to stand for 10 min, after which serial dilutions (up to 10^−5) in sterile saline solution (0.85% w/v NaCl) were prepared. Then, 10 µL of each serial dilution was plated into Petri dishes containing PCA by the drop-plating method. The plates were allowed to set, then inverted and placed in an incubator at 37 °C for 24 h. The surviving cells on the QHS neutralized samples were determined by CFU counting on each plate, ensuring the counting of dilution plates that gave between 10 and 100 CFUs. The antibacterial activity was evaluated by quantification of logarithmic reduction (log CFU/mL), according to Equation (2). log CFU/mL reduction = log (X) − log (X0), (2) where X0 and X are the counts of CFU/mL before (untreated control cells) and after quaternary salt exposure, respectively.
The QHS concentrations chosen for conducting the dose–response tests comprise of the MBC, which causes the complete reduction of planktonic cells, as well as lower concentrations. Specifically, compound 1e was evaluated at concentrations of 0.25, 0.5, 0.75, 1, 2, 4, 8, and 16 µg/mL, compound 7e at concentrations of 1, 2, 3.2, 3.5, 4, 8, and 16 µg/mL, compound 5e at concentrations of 0.5, 1, 1.3, 1.6, 2, 4, and 8 µg/mL, and compound 3e at concentrations of 0.5, 0.75, 1, 1.3, 1.6, 2, 4, and 8 µg/mL. In the case of compounds 2e, 6e, and 4e, concentrations tested were 0.5, 1, 1.6, 2, 4, and 8 µg/mL. All tests were performed in duplicate, and with a minimum of three independent repeats.
The Chick–Watson mathematical model, provided in Equation (3), is considered an adequate approach to validate the kinetics of dose–response data. log X/X0 = − Kdis C^n t (3) where X0 and X are the counts of CFU/mL before and after quaternary salt exposure, respectively; Kdis is a killing rate coefficient ((mL.µg^−1)^n.min^−1); C is the quaternary salt concentration (µg.mL^−1); n is the concentration exponent and t is the exposure time (min). The concentration dependence of killing (n) was determined using a toolbox for linear regression in GraphPad Prism (version 8.4.0, GraphPad Software, La Jolla, CA, USA). The quality of the model was evaluated through the regression coefficient (R^2).

SMILES strings stand for the structures.

One may read the MBC as the lowest tested concentration that kills the bacteria rather than only halting them. A lower MBC goes with more potent killing. By MIC is commonly meant the lowest concentration that inhibits growth of the organism. Lower therefore signals inhibition by little substance. Regarding `CCCCCCCCCCCCCC[n+]1cccc2ccccc21.[Br-]` [Compound 5e, 1-Tetradecylquinolin-1-ium bromide], in the assay with S. aureus RN4220, the minimal bactericidal concentration (MBC) is 8 µg/mL and the MIC was determined as 2 µg/mL. In the assay on S. aureus CECT 976, the “concentration inducing reductions in S. aureus log CFU/mL > 5” value is given as 1.2 μg/mL and the minimal bactericidal concentration (MBC) came to 1.3 µg/mL. For the same molecule, the “maximum log CFU/mL reduction” value with S. aureus CECT 976 (at 1.3 μg/mL) stood at 6.0 log CFU/mL.

Regarding `CCCCCCCCCCCCCC[n+]1ccc2ccccc2c1.[Br-]` [Compound 3e, 2-Tetradecylisoquinolin-2-ium bromide], in the assay on S. aureus RN4220, the minimum bactericidal concentration (MBC) is 4 µg/mL and it took 2 µg/mL to inhibit growth (MIC). In the assay with S. aureus CECT 976, the “concentration inducing reductions in S. aureus log CFU/mL > 5” value was determined as 1.2 μg/mL and the MBC worked out at 1.3 µg/mL. The “maximum log CFU/mL reduction” value in the assay with S. aureus CECT 976 (at 1.3 μg/mL) is recorded as 6.0 log CFU/mL.

In the assay with S. aureus RN4220, `CCCCCCCCCCCCCC[n+]1ccc(C)cc1.[Br-]` [Compound 4e, 4-Methyl-1-tetradecylpyridin-1-ium bromide] registered a minimal bactericidal concentration (MBC) of 8 µg/mL and a minimum inhibitory concentration (MIC) of 4 µg/mL. Besides, in the assay on S. aureus CECT 976, the “concentration inducing reductions in S. aureus log CFU/mL > 5” value turned out to be 3.5 μg/mL. The “maximum log CFU/mL reduction” value in the assay with S. aureus CECT 976 (at 4 μg/mL) is reported as 5.9 log CFU/mL.

In the assay with S. aureus RN4220, `CCCCCCCCCCCCCC[n+]1ccccc1.[Br-]` [Compound 6e, 1-Tetradecylpyridin-1-ium bromide] had an MBC of 8 µg/mL and an MIC of 4 µg/mL. In the assay on S. aureus CECT 976, the “concentration inducing reductions in S. aureus log CFU/mL > 5” value is 3.2 μg/mL. The “maximum log CFU/mL reduction” value in the assay with S. aureus CECT 976 (at 4 μg/mL) worked out at 5.9 log CFU/mL.

`CCCCCCCCCCCCCC[P+](c1ccccc1)(c1ccccc1)c1ccccc1` [Compound 1e, Triphenyl(tetradecyl)phosphonium bromide]: in the assay with S. aureus RN4220, the MBC was 2 µg/mL and the MIC worked out at 1 µg/mL. Also, in the assay with S. aureus CECT 976, the “concentration inducing reductions in S. aureus log CFU/mL > 5” value turned out to be 0.7 μg/mL and the MBC turned out to be 1 µg/mL.

With `CCCCCCCCCCCCCC[n+]1ccn(C)c1.[Br-]` [Compound 2e, 1-Methyl-3-tetradecyl-1H-imidazol-3-ium bromide], in the assay with S. aureus RN4220, the MBC is 8 µg/mL and 4 µg/mL was the least that counted as inhibitory (MIC). Further, the “concentration inducing reductions in S. aureus log CFU/mL > 5” value with S. aureus CECT 976 turned out to be 2.8 μg/mL.

For the origin of these results see paper PMC10778626, “Efficacy of Novel Quaternary Ammonium and Phosphonium Salts Differing in Cation Type and Alkyl Chain Length against Antibiotic-Resistant Staphylococcus aureus” (International Journal of Molecular Sciences, 2023).
